According to ChEMBL document CHEMBL3352662, “Flow synthesis and biological activity of aryl sulfonamides as selective carbonic anhydrase IX and XII inhibitors” (Bioorg Med Chem Lett, 2014):

Legend:
Carbonic anhydrase 9 = Carbonic anhydrase 9 (Homo sapiens, UniProt Q16790); experiment: Inhibition of CA-9 (unknown origin) after 15 mins by CO2 hydration assay
Carbonic anhydrase 1 [1] = molecular target: T1, Carbonic anhydrase 1 (Homo sapiens, UniProt P00915); experiment: Inhibition of CA-1 (unknown origin) after 15 mins by CO2 hydration assay
Target sequence in this assay (P00915 whole entry): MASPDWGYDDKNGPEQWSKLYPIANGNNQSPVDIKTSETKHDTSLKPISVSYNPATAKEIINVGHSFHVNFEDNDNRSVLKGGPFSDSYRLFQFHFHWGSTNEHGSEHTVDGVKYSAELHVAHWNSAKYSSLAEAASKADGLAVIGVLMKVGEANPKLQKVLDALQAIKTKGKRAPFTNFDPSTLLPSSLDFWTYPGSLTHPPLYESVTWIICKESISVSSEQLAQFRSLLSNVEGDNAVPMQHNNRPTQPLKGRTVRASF

Carbonic anhydrase 2 [2] = molecular target: T2, Carbonic anhydrase 2 (Homo sapiens, UniProt P00918); experiment: Inhibition of CA-2 (unknown origin) after 15 mins by CO2 hydration assay
Carbonic anhydrase 1 [3] = molecular target: T1, Carbonic anhydrase 1; experiment: Inhibition of CA-1 (unknown origin) at 10 uM after 15 mins by CO2 hydration assay
Target sequence in this assay (P00915 2-261 limits assumed): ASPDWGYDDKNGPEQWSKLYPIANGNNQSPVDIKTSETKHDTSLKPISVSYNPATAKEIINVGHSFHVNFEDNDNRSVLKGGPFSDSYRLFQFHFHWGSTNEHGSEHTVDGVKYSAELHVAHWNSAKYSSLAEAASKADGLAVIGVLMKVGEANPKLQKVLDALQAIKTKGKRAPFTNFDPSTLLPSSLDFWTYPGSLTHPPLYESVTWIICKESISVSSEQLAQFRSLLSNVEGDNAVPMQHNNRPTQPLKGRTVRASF

Carbonic anhydrase 12 = Carbonic anhydrase 12 (Homo sapiens, UniProt O43570); experiment: Inhibition of CA-12 (unknown origin) after 15 mins by CO2 hydration assay
Carbonic anhydrase 12, sequence (O43570 whole entry): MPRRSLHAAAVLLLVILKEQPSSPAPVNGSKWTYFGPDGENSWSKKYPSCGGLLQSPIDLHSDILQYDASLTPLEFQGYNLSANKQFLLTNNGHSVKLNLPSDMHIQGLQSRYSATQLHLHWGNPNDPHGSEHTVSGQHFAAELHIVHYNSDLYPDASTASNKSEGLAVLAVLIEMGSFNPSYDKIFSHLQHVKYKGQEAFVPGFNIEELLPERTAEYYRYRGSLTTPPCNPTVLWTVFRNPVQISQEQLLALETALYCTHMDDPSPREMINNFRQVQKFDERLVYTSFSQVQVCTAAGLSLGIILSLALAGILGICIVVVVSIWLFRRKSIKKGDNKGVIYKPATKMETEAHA

Carbonic anhydrase 2 [4] = molecular target: T2, Carbonic anhydrase 2; experiment: Inhibition of CA-2 (unknown origin) at 10 uM after 15 mins by CO2 hydration assay

| Compound | IC50 (Carbonic anhydrase 9) [µM] | IC50 (Carbonic anhydrase 1 [1]) [µM] | IC50 (Carbonic anhydrase 2 [2]) [µM] | inhibition (Carbonic anhydrase 1 [3]) [%] | IC50 (Carbonic anhydrase 12) [µM] | inhibition (Carbonic anhydrase 2 [4]) [%] |
| --- | --- | --- | --- | --- | --- | --- |
| Cc1ccc(S(=O)(=O)NCCCN(C)C)cc1 | 0.094 | > 50 | 6.67 | 39 |  |  |
| O=[N+]([O-])c1ccc(S(=O)(=O)Nc2ccccc2)cc1 | 0.128 | > 50 | 7.32 | 39 |  |  |
| COc1ccc(S(=O)(=O)Nc2ccccc2)cc1OC | 0.079 | > 50 | > 50 | 39 | 0.179 | 45 |
| Cc1ccc(S(=O)(=O)NCC(=O)O)cc1 | 0.217 | > 50 | 3.62 | 39 |  |  |
| Cc1ccc(S(=O)(=O)N(C)c2ccccc2)cc1 | 0.093 | > 50 | > 50 | 39 | 0.266 | 45 |
| Cc1ccc(S(=O)(=O)Nc2ccccc2)cc1 | 0.09 | > 50 | > 50 | 35 |  | 45 |
| CCCC(C)NS(=O)(=O)c1ccc(C)cc1 (centres undefined) | 0.07 | > 50 | 8.07 | 40 |  |  |
| Cc1ccc(S(=O)(=O)Nc2ccccc2-c2ccccc2)cc1 | 0.09 | > 50 | 5.1 | 38 | 0.226 |  |
| CC(=O)c1ccc(S(=O)(=O)Nc2ccccc2)cc1 | 0.074 | > 50 | > 50 | 36 |  | 47 |
| Cc1ccc(S(=O)(=O)NCc2ccccc2)cc1 | 0.076 | > 50 | > 50 | 34 | 4.28 | 44 |
